Reference: paper PMC11671585, “Deciphering the molecular basis of lipoprotein recognition and transport by LolCDE” (Signal Transduction and Targeted Therapy, 2024)

Target: T1, LolCDE (LolCD^E171QE) (Escherichia coli, UniProt P75957, E171Q)
T1 construct: gene lolD; full complex LolC, LolD dimer, LolE; 8xHis tag at C terminus of LolD; expressed in E. coli C43 (DE3); reconstituted in MSP1D1 nanodiscs with E. coli polar lipids; with Lipoprotein-releasing system transmembrane protein LolC; Lipoprotein-releasing system transmembrane protein LolE
Experiment: cryo-EM structure, […] Å, nanodiscs
Assay type: binding
Conditions: endogenous ATP with Mg2+, no nucleotide added; both catalytic sites of the LolD dimer; catalytically inactive mutant; pH 7.8

T1 sequence (P75957 whole entry E171Q): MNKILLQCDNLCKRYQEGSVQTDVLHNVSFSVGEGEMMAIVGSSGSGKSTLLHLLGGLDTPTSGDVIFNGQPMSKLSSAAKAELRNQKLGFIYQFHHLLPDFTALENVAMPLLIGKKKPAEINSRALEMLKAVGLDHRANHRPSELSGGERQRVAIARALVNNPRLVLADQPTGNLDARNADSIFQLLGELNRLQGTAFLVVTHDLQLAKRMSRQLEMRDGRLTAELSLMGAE
T1 sequence (P75958 2-414, further chain): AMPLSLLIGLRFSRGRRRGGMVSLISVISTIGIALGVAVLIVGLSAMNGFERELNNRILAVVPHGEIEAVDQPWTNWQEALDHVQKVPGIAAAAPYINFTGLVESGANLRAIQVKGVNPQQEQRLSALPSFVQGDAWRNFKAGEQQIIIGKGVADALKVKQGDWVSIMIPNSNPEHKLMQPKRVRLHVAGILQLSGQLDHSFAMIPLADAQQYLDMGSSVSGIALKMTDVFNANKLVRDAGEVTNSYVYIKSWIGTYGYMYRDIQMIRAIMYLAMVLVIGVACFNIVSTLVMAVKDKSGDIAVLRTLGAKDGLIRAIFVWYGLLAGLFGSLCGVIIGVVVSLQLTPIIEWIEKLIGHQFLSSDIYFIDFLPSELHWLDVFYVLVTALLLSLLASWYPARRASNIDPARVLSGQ
T1 sequence (P0ADC3 whole entry, further chain): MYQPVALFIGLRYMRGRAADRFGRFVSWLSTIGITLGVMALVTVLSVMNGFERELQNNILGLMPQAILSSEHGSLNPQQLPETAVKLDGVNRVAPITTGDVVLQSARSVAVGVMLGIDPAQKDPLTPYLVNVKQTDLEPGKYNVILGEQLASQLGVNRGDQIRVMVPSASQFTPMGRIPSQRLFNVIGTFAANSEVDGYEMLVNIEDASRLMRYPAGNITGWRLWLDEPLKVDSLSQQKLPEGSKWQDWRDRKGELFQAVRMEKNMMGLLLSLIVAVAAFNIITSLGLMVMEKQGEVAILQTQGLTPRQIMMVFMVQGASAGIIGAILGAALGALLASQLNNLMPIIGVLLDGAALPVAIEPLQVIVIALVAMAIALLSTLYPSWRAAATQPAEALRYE

Nc1ncnc2c1ncn2[C@@H]1O[C@H](COP(=O)(O)OP(=O)(O)OP(=O)(O)O)[C@@H](O)[C@H]1O [ATP]
cryo-EM structure, 3.2 Å, nanodiscs: additional cryo-EM densities were observed in the catalytic pockets of LolD, which were identified as ATP
